# Measurements taken from patent US20080248024A1, “THERAPEUTIC AGENT FOR CANCER, INFLAMMATION, AND AUTO-IMMUNE DISEASE CONTAINING INHIBITOR OF ZINC FINGER PROTEIN 91” (Korea Research Institute of Bioscience and Biotechnology, priority 2007, published 2008).
# Entries after “also recorded” stand apart in the source; their conditions may differ. Where two headings read alike, the source gives them in different places.
# Legend:
# ZFP91 promoter = ZFP91 promoter luciferase reporter assay (pGL3-ZFP91prom-LUC); format: cell-based, human
# ZFP91 [1] = assay: ZFP91 expression in MCF-7 treated with NF-κB activators; format: cell-based, human; settings: TNF-α 20 ng/ml, PMA 20 ng/ml, IL1-β 20 ng/ml, H2O2 1 mM, 0, 3, 6, 14, 24 hours
# Procedure: To examine whether ZFP91 expression was regulated by NF-κB, the breast cancer cell line MCF-7 was treated with the NF-κB activators, TNF-α (20 ng/ml), PMA (20 ng/ml), IL1-β (20 ng/ml) and H2O2 (1 mM) for 0, 3, 6, 14, and 24 hours. After 0, 3, 6, 14, and 24 hours from the treatment, poly(A)^+ RNA was extracted, followed by Northern blotting. The probe used for Northern blotting was prepared as follows; TOPO cloning vector inserted with ZFP91 was digested with EcoRI and the insert alone was used after random prime labeling with [α-^32P]dCTP. ZFP91 expressions over the time were investigated. […] The NF-κB activators p65, IKKα, IKKβ, and NIK were expressed in MCF-7 cells. 48 hours later, ZFP91 expressions in the cells were investigated.
# [2] = system: PTPN11, SPIN, ECT2, EWSR1, MLLT4, MAGEA4, TNFAIP3 and ZFP91; assay: RT-PCR of candidate genes regulated by kamebakaurin; format: cell-based, human; settings: kamebakaurin 10 μg/ml, 5 hours, MDA-MB-231 cells
# Procedure: A human breast cancer cell line MDA-MB-231 cells was treated with DMSO and kamebakaurin (10 μg/ml) respectively, followed by culture for 5 hours. The cells were washed with cold PBS three times, and then total RNA was extracted by using RNeasy Mini kits (Qiagen, Santa Clarita, Calif., USA) 5 μg of the total RNA was used for the synthesis of cDNA using Invitrogen kit Access RT-PCR Kit (Promega, Madison, Wis., U.S.A.). The ZFP91 specific primer was constructed based on the nucleotide sequence of Genebank (Accession No. NM-053023). Each candidate gene specific primer was constructed based on the informed nucleotide sequences (Table 1). PCR was performed with prepared cDNA as follows: predenaturation at 95° C. for 5 minutes, denaturation at 94° C. for 1 minute, annealing at 50° C.-60° C. for 2 minutes, polymerization at 70° C. for 1 minute, 30 cycles from denaturation to polymerization. The gene-specific PCR products proceeded to electrophoresis on 1% agarose gel, followed by EtBr staining (FIG. 1).
# [3] = system: MAGEA4, TNFAIP3 and ZFP91; assay: Northern blotting of candidate genes regulated by kamebakaurin; format: cell-based, human; settings: kamebakaurin 10 μg/ml, 5 hours, MDA-MB-231 cells
# Procedure: MDA-MB-231 cells were treated with DMSO and kamebakaurin (10 μg/ml), followed by culture for 5 hours. The cells were washed with cold PBS three times, and poly(A)^+ RNA was extracted by using FastTrack 2.0 kit (Invitrogen). 2 μg of the extracted poly (A)^+ RNA was eletrohporesed on 1% agarose-formaldehyde gel, which was transferred onto a nylon membrane (Roche, Mannheim, Germany). To investigate the expressions of selected candidate genes, the PCR product was purified by using Wizard PCR PrepsDNA Purification Systems (Promega Corporation, Madison, Wis., U.S.A.) and then used as a probe. Each probe was labeled with [α-^32P]dCTP using Rediprime™ II random prime labeling system (Amersham Biosciences). Non-incorporated ^32P was removed by using spin column (ProbeQuant™ G-50 Micro Columns; Amersham Biosciences). The prepared cDNA was used as a probe for hybridization with the membrane. After the hybridization, the membrane was washed with 2×SSC/0.1% SDS, which was exposed on X-ray film at −80° C. with intensifying screen.
# MDA-MB-435 [4] = assay: MDA-MB-435 xenograft tumor growth in nude mice; format: in vivo; settings: 15 mg/kg into the abdominal cavity every other day, 12 times
# Procedure: (§1) The human breast cancer cell line MDA-MB-435 was transplanted in the glandular fatty tissues of nude mice (Charles River Laboratory, Wilmington, Mass., USA) at 5 weeks (1×10^6 cells/mouse). 12 days later, the nude mice having tumor were grouped by 8. Kamebakaurin dissolved in 0.5% Tween 80 was administered into the abdominal cavity every other day at the concentrations of 1.5 and 15 mg/kg 12 times in total. The tumor size was measured for 23 days after the transplantation. The tumor size was calculated by “width 2 (square)×[…]/2=tumor volume (mm^3)”.
# MDA-MB-435 [5] = assay: MDA-MB-435 xenograft metastasis to the lung in nude mice; format: in vivo; settings: for Frequency (metastatic mice/total mice) / Minimum metastasis number-maximum metastasis number / number of metastasis in lung (median value) / Mean number of metastasis in lung: 35 days after transplantation; for Mean number of metastasis in lung: colonies >diameter 2 mm
# Procedure: as §1
# After 35 days from the transplantation, the lung of the mouse was excised and washed with water and fixed in Bouin's solution (SIGMA). The colonies metastasized to the surface of the lung (>diameter 2 mm) were counted under microscope and the mean values are shown in Table 2.
# HIF-1α = HIF-1α expression induced under 1% oxygen in AGS cells expressing ZFP91; settings: AGS cells expressing ZFP91, 1% oxygen
# ZFP91 [6] = assay: TNF-α mediated ZFP91 expression in FLAG-ZFP91 expressing AGS cells, Western blotting; settings: pre-treatment 30 minutes with KA 1, 10 ug/ml, celastrol 0.2, 2 ug/ml, parthenolide 0.5, 5 ug/ml, TNF-α 50 ng/ml 3 hours
# Procedure: TNF-α (50 ng/ml) was treated thereto for 3 hours. Then, cell lysate was obtained, followed by Western blot analysis using a mouse anti-FLAG antibody.
# FLAG-ZFP91 expressing AGS cells were pre-treated with the NF-κB inhibitors, kamebakaurin (KA), celastrol (Cel), parthenolide (PTN), for 30 minutes. TNF-α mediated ZFP91 expression was investigated by Western blotting using anti-ZFP91 antibody.
# ZFP91 [7] = assay: ZFP91 expression after ZFP91 siRNA, Western blotting; format: cell-based, human; settings: various cancer cells
# Excerpt: To investigate the effect of ZFP91 on HIF-1 activation, a human stomach cancer cell line, AGS cells and AGS cells transformed with ZFP91 were transfected with HRE dependent reporter plasmid. ZFP91 siRNA oligomers (SEQ. ID. NO: 1-NO: 4; siRNA sequences corresponding to amino terminal region ccaggtg gcattagtag tgaa, sense: r(AGG UGG CAU UAG UAG UGA A)dTdT, antisense: r(UUC ACU ACU AAU GCC ACC U)dGdG; produced by GIAGEN) were introduced into the above cell lines by using RANiFect Transfection reagent (QIAGEN, Germany).
# Particularly, After 24 hours incubation of 1×10^5 cells/well distributed in a 24-well plate. siRNA oligomer (3.8 ul of SIRNA oligomer: 1 ug) was introduced into the cells with 96.2 ul of medium or EC-R buffer and 6 ul of RNAiFect reagent (Quiagen) and then the plate was kept at room temperature for 10-15 minutes. During the incubation, the medium of 24-well plate was replaced with 300 μl of fresh medium and the mixture of siRNA oligomer and RNAiFect reagent was slowly added and carefully mixed. The reaction mixture was incubated for 24 hours under normoxic condition, and then further cultured for another 24 hours in an incubator in the presence of 1% oxygen. Some of extracts of the cells proceeded to luciferase assay and HIF-1 induced luciferase activity was measured. […]
# [8] = ZFP91 promoter containing both KB1 and KB2
compound,measurement,setting,value
[Cl-].[Cl-].[Co+2] [CoCl2],ZFP91 promoter activity,ZFP91 promoter,significantly increased
OO [H2O2],ZFP91 promoter activity,ZFP91 promoter; stomach cancer cell line transfected with pGL3-ZFP91prom-LUC,significantly increased
same,ZFP91 at mRNA level,ZFP91 [1],not much increased
same,ZFP91 at protein level,ZFP91 [1],significantly increased time-dependently
CCCCCCCCCCCCCC(=O)O[C@@H]1[C@@H](C)[C@@]2(O)[C@@H](C=C(CO)C[C@]3(O)C(=O)C(C)=C[C@@H]23)[C@@H]2C(C)(C)[C@]12OC(C)=O [PMA],ZFP91 promoter activity,ZFP91 promoter; [8],induced
same,ZFP91 at mRNA level,ZFP91 [1],not much increased
same,ZFP91 at protein level,ZFP91 [1],significantly increased time-dependently
"C=C1C(=O)[C@@]23[C@H](O)C[C@@H]4C(C)(C)CC[C@H](O)[C@@]4(CO)[C@@H]2CC[C@@H]1[C@H]3O [kamebakaurin, Kamebakaurin]","expression of PTPN11, SPIN, ECT2, EWSR1, MLLT4, MAGEA4, TNFAIP3 and ZFP91 (RT-PCR)",[2],down-regulated by at least two times
same,"expression levels of MAGEA4, TNFAIP3 and ZFP91 (Northern blotting) vs KA-non-treated control",[3],significantly different
same,tumor growth,MDA-MB-435 [4],significantly inhibited
same,Frequency (metastatic mice/total mice),MDA-MB-435 [5]; 1.5 mg/kg,6/8
same,Minimum metastasis number-maximum metastasis number,MDA-MB-435 [5]; 1.5 mg/kg,(0-6)
same,number of metastasis in lung (median value),MDA-MB-435 [5]; 1.5 mg/kg,3
same,Mean number of metastasis in lung,MDA-MB-435 [5]; 1.5 mg/kg,3.3
same,Frequency (metastatic mice/total mice),MDA-MB-435 [5]; 15 mg/kg,6/8
same,Minimum metastasis number-maximum metastasis number,MDA-MB-435 [5]; 15 mg/kg,(0-4)
same,number of metastasis in lung (median value),MDA-MB-435 [5]; 15 mg/kg,2
same,Mean number of metastasis in lung,MDA-MB-435 [5]; 15 mg/kg,1.8
same,metastasis to the lung,"MDA-MB-435 [5]; 15 mg/kg, nude mice, MDA-MB-435",significantly inhibited
same,HIF-1α expression / accumulation,HIF-1α,suppressed; also recorded: inhibited; also recorded: significantly reduced
same,TNF-α mediated ZFP91 expression,ZFP91 [6],suppressed; also recorded: inhibited
"IL-1β: pro-inflammatory cytokine, NF-κB activator",ZFP91 promoter activity,ZFP91 promoter; [8],induced
same,ZFP91 at mRNA level,ZFP91 [1],not much increased
same,ZFP91 at protein level,ZFP91 [1],significantly increased time-dependently
TNF-α,ZFP91 promoter activity,ZFP91 promoter; [8],induced
same,ZFP91 at mRNA level,ZFP91 [1],not much increased
same,ZFP91 at protein level,ZFP91 [1],significantly increased time-dependently
"ZFP91 siRNA 1: siRNA corresponding to the nucleotide sequence 710-730 (NCBI, NM-053023) of ZFP91, SEQ. ID. NO: 1 and NO: 2 (chain 1 GGCAUUAGUAGUGAA; chain 2 UUCACUACUAAUGCCACCU; listed as RNA, chemistry not fully specified)",ZFP91 expression,ZFP91 [7],Suppression
"ZFP91 siRNA 2: siRNA corresponding to nucleotides 2261-2279 of 3′ untranslated region of ZFP91, SEQ. ID. NO: 3 and NO: 4 (chain 1 GCGGCACACUUAUCUUCAA; chain 2 UUGAAGAUAAGUGUGCCGC; listed as RNA, chemistry not given here)",ZFP91 expression,ZFP91 [7],Suppression
